Values of other authors, collected in patent US20220175718A1, “TRANSDERMAL PHARMACEUTICAL FORMULATIONS FOR THE TREATMENT OF CANCER” (PIKE THERAPEUTICS, INC., priority 2020, published 2022).

How the values were obtained:
CB2 = CB2 (Homo sapiens, UniProt P34972); conditions: for selectivity for CB2 over CB1: given as ×, fold or times
CB1 = CB1 (Homo sapiens, UniProt P21554)
Sequence of CB1 (P21554 whole entry, species assumed): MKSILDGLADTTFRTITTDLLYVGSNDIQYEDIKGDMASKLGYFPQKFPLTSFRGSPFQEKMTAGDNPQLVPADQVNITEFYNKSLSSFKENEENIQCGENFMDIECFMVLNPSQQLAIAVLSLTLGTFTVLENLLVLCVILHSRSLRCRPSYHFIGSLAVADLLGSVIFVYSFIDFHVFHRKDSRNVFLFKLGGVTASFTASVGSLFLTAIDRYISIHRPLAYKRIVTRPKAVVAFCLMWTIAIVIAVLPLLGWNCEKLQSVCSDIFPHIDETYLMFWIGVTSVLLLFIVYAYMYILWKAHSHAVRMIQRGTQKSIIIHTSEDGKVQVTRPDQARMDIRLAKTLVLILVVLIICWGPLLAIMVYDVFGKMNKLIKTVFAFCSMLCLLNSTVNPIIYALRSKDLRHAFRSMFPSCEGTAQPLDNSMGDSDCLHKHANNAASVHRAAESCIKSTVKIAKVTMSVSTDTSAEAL

Sequence of CB2 (P34972 whole entry, species assumed): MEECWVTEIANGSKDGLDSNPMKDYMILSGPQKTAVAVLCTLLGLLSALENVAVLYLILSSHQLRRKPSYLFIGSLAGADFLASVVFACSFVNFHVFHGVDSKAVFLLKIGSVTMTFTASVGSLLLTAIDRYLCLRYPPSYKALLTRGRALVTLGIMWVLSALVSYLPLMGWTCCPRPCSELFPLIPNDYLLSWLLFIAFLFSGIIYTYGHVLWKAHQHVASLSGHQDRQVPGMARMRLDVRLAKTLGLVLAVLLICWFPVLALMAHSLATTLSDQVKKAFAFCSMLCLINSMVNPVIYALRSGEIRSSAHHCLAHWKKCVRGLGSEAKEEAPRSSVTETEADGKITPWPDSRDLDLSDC

In the case of `CCCn1cc(C(=O)c2ccc(C)c3ccccc23)c2ccccc21` [JWH-120], the “selectivity for CB2 over CB1” value (CB2) is given as 173.
In the case of `CCCCCCC(C)(C)c1cc(OC)c2c(c1)OC(C)(C)C1CCC(O)CC21` (stereo not drawn) [JWH-350, 11-nor-1-methoxy-3-(1′,1′-dimethylheptyl)-9α-hydroxyhexahydrocannabinol], the “selectivity for CB2 over CB1” value (CB2) is given as 33.
In the case of `CCCn1c(C)c(C(=O)c2ccc(C)c3ccccc23)c2ccccc21` [JWH-148], the “selectivity for CB2 over CB1” value (CB2) is given as “more than 8”.
In the case of `CCCCCn1cc(C(=O)c2ccc(Cl)c3ccccc23)c2ccccc21` [JWH-398], the Ki (CB1) is given as 2.3 nM and the Ki (CB2) is given as 2.8 nM.
For `CCCCCn1cc(C(=O)c2cccc3cccc(Br)c23)c2ccccc21` [JWH-424], the Ki (CB1) is listed as 20.9 nM and the Ki (CB2) is listed as 5.44 nM.
For `CCCCCCC(C)(C)c1cc(O)c2c(c1)oc(=O)c1ccc(OC)cc12` [AM-1710], the “selectivity for CB2 over CB1” value (CB2) is given as 54.
